Reference: US4388233A, “Synthetic substrates for enzyme analysis” (priority 1981, dated 1983)
Read-outs that look alike come from different tables or passages of the source.

What was measured:
Urokinase = experiment: Enzyme kinetic / reaction rate study of synthetic substrates with urokinase; format: biochemical; conditions: for 1/V: urokinase, pH8, 37° C., Ex = 410 nm, Em = 475 nm
From the text: (§1) In use for enzyme analysis, following enzyme cleavage of the bond between the C7 amino group and the A moiety, a detector group is liberated. This detector group is substantially identical to the precursor D moiety (although the amido group at C7 is converted to a primary amino group) and shall be hereinafter referred to as the liberated D compound.
(§2) The liberated D compounds from the above-described inventive synthetic substrates generally fluoresce strongly in the blue to yellow region of the spectrum once irradiated with ultraviolet light, whereas the intact synthetic substrates of the present invention fluoresce more weakly and at shorter wavelengths. The presence of the liberated D compound can be qualitatively or quantitatively determined fluorometrically, or may be utilized in colorimetric assays. Synthetic substrates in accordance with the present invention preferably fluoresce at wavelengths of at least about 460 nm. The FIG. 2 structure, for example, yields a liberated D compound which fluoresces at a wavelength of 472 nm, and the FIG. 3 structure at a wavelength of 505 nm.
(§3) The inventive synthetic substrates may be used in enzyme kinetic studies. Table I, below illustrates kinetic data of several synthetic substrates in accordance with the present invention (where the liberated D compound is 7-amino-3-phenylcoumarin) with 3 different enzymes.
(§4) Table II, below, tabulates the data from three Lineweaver-Burk plots of reaction rate studies utilizing several of the inventive synthetic substrates.

[1] = Fluorescence properties of liberated detector compounds; format: physicochemical; conditions: for Em: fluorescence emission wavelength of detector compound; for Ex: fluorescence excitation wavelength of detector compound; for Rel. Int.: relative fluorescent intensity of detector compound
From the text: The presence of the liberated D compound can be qualitatively or quantitatively determined fluorometrically, or may be utilized in colorimetric assays.

[2] = Solubility of liberated detector compounds in water; conditions: in water as solvent, analogous to a buffered solution
Trypsin = experiment: Enzyme kinetic / reaction rate study of synthetic substrates with trypsin; format: biochemical; conditions: for 1/V: trypsin, pH8, 37° C., Ex = 420 nm, Em = 485 nm; for Km / Vmax: Trypsin, pH 8.0, 200 ng/mL, liberated D compound 7-amino-3-phenylcoumarin
From the text: as §1, §2, §3, §4

DAP II = experiment: Enzyme kinetic study of synthetic substrates with DAP II; format: biochemical; conditions: pH 5.6, rat pituitary homogenate 13.75 μg/mL protein equivalent, liberated D compound 7-amino-3-phenylcoumarin
From the text: as §1, §2
The inventive synthetic substrates may be used in enzyme kinetic studies. Table I, below illustrates kinetic data of several synthetic substrates in accordance with the present invention (where the liberated D compound is 7-amino-3-phenylcoumarin) with 3 different enzymes. […]

[3] = water
[4] = Urokinase, pH 8.0, 2.5 Plough units/ml, liberated D compound 7-amino-3-phenylcoumarin

For `N=C(N)NCCC[C@H](NC(=O)CNC(=O)CNC(=O)OCc1ccccc1)C(=O)Nc1ccc2cc(-c3ccccc3)c(=O)oc2c1` [Example X, 7-(Z-Glycylglycyl-L-arginamido)-3-phenylcoumarin], the 1/V (Urokinase; 1/S = 1 (mm)^-1) was 11 (nmol/ml/min)^-1, the 1/V (Urokinase; 1/S = 2 (mm)^-1) was 13 (nmol/ml/min)^-1 and the 1/V (Urokinase; 1/S = 3.5 (mm)^-1) was 17 (nmol/ml/min)^-1. For the same molecule, the 1/V (Urokinase; 1/S = 5 (mm)^-1) was 22 (nmol/ml/min)^-1, the 1/V (Urokinase; 1/S = 8.25 (mm)^-1) was 36 (nmol/ml/min)^-1 and the 1/V (Urokinase; 1/S = 11 (mm)^-1) was 42 (nmol/ml/min)^-1. The 1/V (Urokinase; 1/S = 12.25 (mm)^-1) was 50 (nmol/ml/min)^-1, the 1/V (Urokinase; 1/S = 14.25 (mm)^-1) was 51 (nmol/ml/min)^-1 and the Km (Urokinase; [4]) was 411 µM. For the same molecule, the Vmax (Urokinase; [4]) was 0.137 nmol/min.

For `Nc1ccc2cc(-c3ccccc3)c(=O)oc2c1` [7-amino-3-phenyl coumarin, 7-amino-3-phenylcoumarin], the Em [1] was 472 nm, the Ex [1] was 368 nm and the “Rel. Int.” value [1] was 4.0. For the same molecule, the Sol. [2] was 0.0012 mg/mL.

With `N=C(N)NCCC[C@H](NC(=O)c1ccccc1)C(=O)Nc1ccc2cc(-c3ccccc3)c(=O)oc2c1` [IX, 7-(Benzoyl-L-arginamido)-3-phenylcoumarin] the 1/V (Trypsin; 1/S = 1.1 (mm)^-1) was 4.9 (nmol/ml/min)^-1, the 1/V (Trypsin; 1/S = 1.7 (mm)^-1) was 6.0 (nmol/ml/min)^-1 and the 1/V (Trypsin; 1/S = 3.4 (mm)^-1) was 10.0 (nmol/ml/min)^-1. For the same molecule, the 1/V (Trypsin; 1/S = 6.7 (mm)^-1) was 18.3 (nmol/ml/min)^-1, the 1/V (Trypsin; 1/S = 12.5 (mm)^-1) was 35.0 (nmol/ml/min)^-1 and the Km (Trypsin) was 945 µM. The Vmax (Trypsin) was 0.414 nmol/min.

In the case of `N=C(N)NCCC[C@H](NC(=O)OCc1ccc([N+](=O)[O-])cc1)C(=O)Nc1ccc2cc(-c3ccccc3)c(=O)oc2c1` [Example XII, 7-(4-NO2 -Z-L-Arginamido)-3-phenylcoumarin], the Km (Trypsin) is reported as 193 µM and the Vmax (Trypsin) is reported as 0.174 nmol/min.

For `N=C(N)NCCC[C@H](NC(=O)OCc1ccccc1)C(=O)Nc1ccc2cc(-c3ccccc3)c(=O)oc2c1` [Example VIII, 7-(Z-L-Arginamido)-3-phenylcoumarin], the 1/V (Trypsin; 1/S = 1.7 (mm)^-1) was 1.45 (nmol/ml/min)^-1, the 1/V (Trypsin; 1/S = 3.3 (mm)^-1) was 2.25 (nmol/ml/min)^-1 and the 1/V (Trypsin; 1/S = 6.7 (mm)^-1) was 4.3 (nmol/ml/min)^-1. The 1/V (Trypsin; 1/S = 12.5 (mm)^-1) was 7.6 (nmol/ml/min)^-1, the 1/V (Trypsin; 1/S = 16.6 (mm)^-1) was 10.2 (nmol/ml/min)^-1 and the Km (Trypsin) was 574 µM. It also gave a Vmax (Trypsin) of 1.264 nmol/min.

In the case of `Br.Br.C[C@H](NC(=O)[C@@H](N)CCCCN)C(=O)Nc1ccc2cc(-c3ccccc3)c(=O)oc2c1.O` [Example VII, 7-(L-Lysyl-L-alaninamido)-3-phenylcoumarin Dihydrobromide Monohydrate], the Km (DAP II) is reported as 321 µM and the Vmax (DAP II) is reported as 0.346 nmol/min.

With `Nc1ccc2c(C(F)(F)F)cc(=O)oc2c1` [7-amino-4-trifluoro-methyl coumarin, 7-amino-4-trifluoromethylcoumarin, reference compound] the Em [1] was 500 nm, the Ex [1] was 390 nm and the “Rel. Int.” value [1] was 1.0. The Sol. [3] was 0.017 mg/mL.
